Assay results: patent US6706663B2, “Herbicidal 3-heterocyclic substituted benzisothiazole and benzisoxazole compounds” (Wyeth, priority 2000, dated 2004)

Columns and labels:
[1] = tested on: ABUTH (Abutilon theophrasti); experiment: Postemergence herbicidal evaluation; assay type: in vivo, Medic.; details: for ABUTH herbicidal rating: postemergence
Method in brief: (§1)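 Visual 0–9 injury scores versus control plants, covering stand, vigour, malformation, size, chlorosis and general appearance, taken four to five weeks post-spray and averaged over replicate tests. Plants were sprayed at roughly two weeks old and held on greenhouse benches.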

[2] = tested on: AMBEL (Ambrosia artemisifolia); experiment: Postemergence herbicidal evaluation; assay type: in vivo, L.; details: for AMBEL herbicidal rating: postemergence
Method in brief: as §1

[3] = tested on: CASOB (Cassia obtusifolia); experiment: Postemergence herbicidal evaluation; assay type: in vivo, L.; details: for CASOB herbicidal rating: postemergence
Method in brief: as §1

[4] = tested on: CHEAL (Chenopodium album); experiment: Postemergence herbicidal evaluation; assay type: in vivo, L.; details: for CHEAL herbicidal rating: postemergence
Method in brief: as §1

[5] = tested on: IPOHE (Ipomoea hederacea); experiment: Postemergence herbicidal evaluation; assay type: in vivo, (L.) Jacq.; details: for IPOHE herbicidal rating: postemergence
Method in brief: as §1

[6] = tested on: GLXMAW (Soybean, Williams); experiment: Postemergence herbicidal evaluation; assay type: in vivo, Glycine max, (L.) Merr. cv Williams; details: for GLXMAW herbicidal rating: postemergence
Method in brief: as §1

[7] = tested on: ORYSAT (Rice, Tebonnet); experiment: Postemergence herbicidal evaluation; assay type: in vivo, Oryza sativa, (L.) Tebonnet; details: for ORYSAT herbicidal rating: postemergence
Method in brief: as §1

[8] = tested on: ABUTH (Abutilon theophrasti); experiment: Preemergence herbicidal evaluation; assay type: in vivo, Medic.; details: rated 4-5 weeks after treatment
[9] = tested on: AMBEL (Ambrosia artemisifolia); experiment: Preemergence herbicidal evaluation; assay type: in vivo, L.; details: rated 4-5 weeks after treatment
Method in brief: (§2)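 Rating 0–9, visual, vs control; 4–5 wk after spraying seeded cups with compound in aq. acetone; conventional greenhouse care.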

[10] = tested on: CASOB (Cassia obtusifolia); experiment: Preemergence herbicidal evaluation; assay type: in vivo, L.; details: rated 4-5 weeks after treatment
Method in brief: as §2

[11] = tested on: CHEAL (Chenopodium album); experiment: Preemergence herbicidal evaluation; assay type: in vivo, L.; details: rated 4-5 weeks after treatment
Method in brief: as §2

[12] = tested on: IPOHE (Ipomoea hederacea); experiment: Preemergence herbicidal evaluation; assay type: in vivo, (L.) Jacq.; details: rated 4-5 weeks after treatment
[13] = tested on: ECHCG (Echinochloa crus-galli); experiment: Preemergence herbicidal evaluation; assay type: in vivo, (L.) Beau; details: rated 4-5 weeks after treatment
Method in brief: as §2

[14] = tested on: SETVI (Setaria viridis); experiment: Preemergence herbicidal evaluation; assay type: in vivo, (L.) Beau; details: rated 4-5 weeks after treatment
Method in brief: as §2

[15] = tested on: GLXMAW (Soybean, Williams); experiment: Preemergence herbicidal evaluation; assay type: in vivo, Glycine max, (L.) Merr. cv Williams; details: rated 4-5 weeks after treatment
[16] = tested on: TRZAWR (Wheat, Winter, cv Riband); experiment: Preemergence herbicidal evaluation; assay type: in vivo, Triticum aestivum; details: rated 4-5 weeks after treatment
Method in brief: as §2

[17] = tested on: ZEAMX (Corn, Field); experiment: Preemergence herbicidal evaluation; assay type: in vivo, Zea mays, L.; details: rated 4-5 weeks after treatment
[18] = tested on: CYPIR (Cyperus iria); experiment: Flooded paddy, preemergence weed control; assay type: in vivo; details: rated 3-4 weeks after treatment, 0-9 rating scale
Method in brief: (§3)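 Scoring used a 0-9 visual scale relative to control. Before that, seeds or propagules were planted shallowly in silt loam and flooded to 1.5–3 cm, a depth maintained throughout, with greenhouse care during the test.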

[19] = tested on: MOOVA (Monochoria vaginalis); experiment: Flooded paddy, preemergence weed control; assay type: in vivo, Presl.; details: rated 3-4 weeks after treatment, 0-9 rating scale
Method in brief: as §3

[20] = tested on: ORYSAT (Rice, Tebonnet); experiment: Flooded paddy, post-transplant rice tolerance; assay type: in vivo, Oryza sativa, (L.) Tebonnet; details: flooded paddy, post-transplant rice, rated 3-4 weeks after treatment, 0-9 rating scale
Method in brief: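 Scores (0-9) reflect visual injury relative to untreated plants in flooded silt loam. Each pot held two transplanted ten-day-old seedlings under 1.5 to 3 cm standing water in the greenhouse.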

Cn1c(C(F)(F)F)cc(=O)n(-c2cc3c(C4OCCCO4)nsc3cc2F)c1=O [Compound 62, 3-(3-m-dioxan-2-yl-6-fluoro-1,2-benzisothiazol-5-yl)-1-methyl-6-(trifluoromethyl)uracil]
ABUTH herbicidal rating ([1]; rate 0.0320 kg/ha): 9.0
ABUTH herbicidal rating ([1]; rate 0.0620 kg/ha): 9.0
AMBEL herbicidal rating ([2]; rate 0.0320 kg/ha): 9.0
AMBEL herbicidal rating ([2]; rate 0.0620 kg/ha): 9.0
CASOB herbicidal rating ([3]; rate 0.0320 kg/ha): 9.0
CASOB herbicidal rating ([3]; rate 0.0620 kg/ha): 9.0
CHEAL herbicidal rating ([4]; rate 0.0320 kg/ha): 9.0
CHEAL herbicidal rating ([4]; rate 0.0620 kg/ha): 9.0
IPOHE herbicidal rating ([5]; rate 0.0320 kg/ha): 9.0
IPOHE herbicidal rating ([5]; rate 0.0620 kg/ha): 9.0
GLXMAW herbicidal rating ([6]; rate 0.0320 kg/ha): 9.0
GLXMAW herbicidal rating ([6]; rate 0.0620 kg/ha): 9.0
ORYSAT herbicidal rating ([7]; rate 0.0320 kg/ha): 6.0
ORYSAT herbicidal rating ([7]; rate 0.0620 kg/ha): 6.0
Preemergence herbicidal rating ABUTH ([8]; Rate 0.0620 kg/ha): 9.0
Preemergence herbicidal rating ABUTH ([8]; Rate 0.1250 kg/ha): 9.0
Preemergence herbicidal rating ABUTH ([8]; Rate 0.2500 kg/ha): 9.0
Preemergence herbicidal rating AMBEL ([9]; Rate 0.0620 kg/ha): 9.0
Preemergence herbicidal rating AMBEL ([9]; Rate 0.1250 kg/ha): 9.0
Preemergence herbicidal rating AMBEL ([9]; Rate 0.2500 kg/ha): 9.0
Preemergence herbicidal rating CASOB ([10]; Rate 0.0620 kg/ha): 9.0
Preemergence herbicidal rating CASOB ([10]; Rate 0.1250 kg/ha): 9.0
Preemergence herbicidal rating CASOB ([10]; Rate 0.2500 kg/ha): 9.0
Preemergence herbicidal rating CHEAL ([11]; Rate 0.0620 kg/ha): 9.0
Preemergence herbicidal rating CHEAL ([11]; Rate 0.1250 kg/ha): 9.0
Preemergence herbicidal rating CHEAL ([11]; Rate 0.2500 kg/ha): 9.0
Preemergence herbicidal rating IPOHE ([12]; Rate 0.0620 kg/ha): 9.0
Preemergence herbicidal rating IPOHE ([12]; Rate 0.1250 kg/ha): 9.0
Preemergence herbicidal rating IPOHE ([12]; Rate 0.2500 kg/ha): 9.0
Preemergence herbicidal rating ECHCG ([13]; Rate 0.0620 kg/ha): 9.0
Preemergence herbicidal rating ECHCG ([13]; Rate 0.1250 kg/ha): 9.0
Preemergence herbicidal rating ECHCG ([13]; Rate 0.2500 kg/ha): 9.0
Preemergence herbicidal rating SETVI ([14]; Rate 0.0620 kg/ha): 9.0
Preemergence herbicidal rating SETVI ([14]; Rate 0.1250 kg/ha): 9.0
Preemergence herbicidal rating SETVI ([14]; Rate 0.2500 kg/ha): 9.0
Preemergence herbicidal rating GLXMAW ([15]; Rate 0.0620 kg/ha): 9.0
Preemergence herbicidal rating GLXMAW ([15]; Rate 0.1250 kg/ha): 9.0
Preemergence herbicidal rating GLXMAW ([15]; Rate 0.2500 kg/ha): 9.0
Preemergence herbicidal rating TRZAWR ([16]; Rate 0.0620 kg/ha): 9.0
Preemergence herbicidal rating TRZAWR ([16]; Rate 0.1250 kg/ha): 9.0
Preemergence herbicidal rating TRZAWR ([16]; Rate 0.2500 kg/ha): 9.0
Preemergence herbicidal rating ZEAMX ([17]; Rate 0.0620 kg/ha): 9.0
Preemergence herbicidal rating ZEAMX ([17]; Rate 0.1250 kg/ha): 9.0
Preemergence herbicidal rating ZEAMX ([17]; Rate 0.2500 kg/ha): 9.0
herbicidal rating, CYPIR ([18]; rate 0.0080 kg/ha): 4.5
herbicidal rating, CYPIR ([18]; rate 0.0320 kg/ha): 9.0
herbicidal rating, CYPIR ([18]; rate 0.1250 kg/ha): 9.0
herbicidal rating, MOOVA ([19]; rate 0.0080 kg/ha): 8.0
herbicidal rating, MOOVA ([19]; rate 0.0320 kg/ha): 9.0
herbicidal rating, MOOVA ([19]; rate 0.1250 kg/ha): 9.0
herbicidal rating, ORYSAT (rice tolerance) ([20]; rate 0.0080 kg/ha): 9.0
herbicidal rating, ORYSAT (rice tolerance) ([20]; rate 0.0320 kg/ha): 9.0
herbicidal rating, ORYSAT (rice tolerance) ([20]; rate 0.1250 kg/ha): 9.0

Cc1ccc(-c2nsc3ccc(-n4c(=O)cc(C(F)(F)F)n(C)c4=O)cc23)s1 [Compound 21, 1-methyl-3-[3-(5-methyl-2-thienyl)-1,2-benzisothiazol-5-yl]-6-(trifluoromethyl)uracil]
Postemergence herbicidal rating, ABUTH ([1]; rate 0.0320 kg/ha): 9.0
Postemergence herbicidal rating, ABUTH ([1]; rate 0.0620 kg/ha): 9.0
Postemergence herbicidal rating, ABUTH ([1]; rate 0.1250 kg/ha): 9.0
Postemergence herbicidal rating, AMBEL ([2]; rate 0.0320 kg/ha): 9.0
Postemergence herbicidal rating, AMBEL ([2]; rate 0.0620 kg/ha): 9.0
Postemergence herbicidal rating, AMBEL ([2]; rate 0.1250 kg/ha): 9.0
Postemergence herbicidal rating, CASOB ([3]; rate 0.0320 kg/ha): 2.0
Postemergence herbicidal rating, CASOB ([3]; rate 0.0620 kg/ha): 4.0
Postemergence herbicidal rating, CASOB ([3]; rate 0.1250 kg/ha): 7.0
Postemergence herbicidal rating, CHEAL ([4]; rate 0.0320 kg/ha): 7.0
Postemergence herbicidal rating, CHEAL ([4]; rate 0.0620 kg/ha): 9.0
Postemergence herbicidal rating, CHEAL ([4]; rate 0.1250 kg/ha): 9.0
Postemergence herbicidal rating, IPOHE ([5]; rate 0.0320 kg/ha): 9.0
Postemergence herbicidal rating, IPOHE ([5]; rate 0.0620 kg/ha): 9.0
Postemergence herbicidal rating, IPOHE ([5]; rate 0.1250 kg/ha): 9.0
Postemergence herbicidal rating, GLXMAW ([6]; rate 0.0320 kg/ha): 5.5
Postemergence herbicidal rating, GLXMAW ([6]; rate 0.0620 kg/ha): 6.0
Postemergence herbicidal rating, GLXMAW ([6]; rate 0.1250 kg/ha): 6.0
Postemergence herbicidal rating, ORYSAT ([7]; rate 0.0320 kg/ha): 4.0
Postemergence herbicidal rating, ORYSAT ([7]; rate 0.0620 kg/ha): 3.5
Postemergence herbicidal rating, ORYSAT ([7]; rate 0.1250 kg/ha): 4.5
ABUTH preemergence herbicidal rating ([8]; Rate 0.0620 kg/ha): 4.0
ABUTH preemergence herbicidal rating ([8]; Rate 0.1250 kg/ha): 7.5
ABUTH preemergence herbicidal rating ([8]; Rate 0.2500 kg/ha): 9.0
AMBEL preemergence herbicidal rating ([9]; Rate 0.0620 kg/ha): 2.0
AMBEL preemergence herbicidal rating ([9]; Rate 0.1250 kg/ha): 5.5
AMBEL preemergence herbicidal rating ([9]; Rate 0.2500 kg/ha): 7.5
CASOB preemergence herbicidal rating ([10]; Rate 0.0620 kg/ha): 0.0
CASOB preemergence herbicidal rating ([10]; Rate 0.1250 kg/ha): 0.5
CASOB preemergence herbicidal rating ([10]; Rate 0.2500 kg/ha): 2.0
CHEAL preemergence herbicidal rating ([11]; Rate 0.0620 kg/ha): 9.0
CHEAL preemergence herbicidal rating ([11]; Rate 0.1250 kg/ha): 9.0
CHEAL preemergence herbicidal rating ([11]; Rate 0.2500 kg/ha): 9.0
IPOHE preemergence herbicidal rating ([12]; Rate 0.0620 kg/ha): 0.0
IPOHE preemergence herbicidal rating ([12]; Rate 0.1250 kg/ha): 2.0
IPOHE preemergence herbicidal rating ([12]; Rate 0.2500 kg/ha): 5.0
ECHCG preemergence herbicidal rating ([13]; Rate 0.0620 kg/ha): 0.0
ECHCG preemergence herbicidal rating ([13]; Rate 0.1250 kg/ha): 5.0
ECHCG preemergence herbicidal rating ([13]; Rate 0.2500 kg/ha): 6.5
SETVI preemergence herbicidal rating ([14]; Rate 0.0620 kg/ha): 6.5
SETVI preemergence herbicidal rating ([14]; Rate 0.1250 kg/ha): 9.0
SETVI preemergence herbicidal rating ([14]; Rate 0.2500 kg/ha): 9.0
GLXMAW preemergence herbicidal rating ([15]; Rate 0.0620 kg/ha): 0.0
GLXMAW preemergence herbicidal rating ([15]; Rate 0.1250 kg/ha): 0.0
GLXMAW preemergence herbicidal rating ([15]; Rate 0.2500 kg/ha): 2.0
TRZAWR preemergence herbicidal rating ([16]; Rate 0.0620 kg/ha): 0.0
TRZAWR preemergence herbicidal rating ([16]; Rate 0.1250 kg/ha): 1.0
TRZAWR preemergence herbicidal rating ([16]; Rate 0.2500 kg/ha): 2.0
ZEAMX preemergence herbicidal rating ([17]; Rate 0.0620 kg/ha): 1.0
ZEAMX preemergence herbicidal rating ([17]; Rate 0.1250 kg/ha): 3.5
ZEAMX preemergence herbicidal rating ([17]; Rate 0.2500 kg/ha): 4.5
herbicidal rating, CYPIR ([18]; rate 0.0080 kg/ha): 4.0
herbicidal rating, CYPIR ([18]; rate 0.0320 kg/ha): 9.0
herbicidal rating, CYPIR ([18]; rate 0.1250 kg/ha): 9.0
herbicidal rating, MOOVA ([19]; rate 0.0080 kg/ha): 7.0
herbicidal rating, MOOVA ([19]; rate 0.0320 kg/ha): 9.0
herbicidal rating, MOOVA ([19]; rate 0.1250 kg/ha): 9.0
herbicidal rating, ORYSAT (rice tolerance) ([20]; rate 0.0080 kg/ha): 0.0
herbicidal rating, ORYSAT (rice tolerance) ([20]; rate 0.0320 kg/ha): 2.0
herbicidal rating, ORYSAT (rice tolerance) ([20]; rate 0.1250 kg/ha): 3.0
